Converted amounts (≈) assume the structure as drawn.

What all share (assay type): functional
Assay [1] has as its system Bacillus subtilis. As to the kind of experiment: Antibacterial activity against Bacillus subtilis at 500 ug/ml after 24 hrs by agar well diffusion method. The conditions noted are these: read-out: DIZ. For orientation: In agar diffusion tests the substance spreads into inoculated agar from a disc or well.
In assay [2] the test system is Bacillus subtilis. The assay can be described thus: Antibacterial activity against Bacillus subtilis at 300 ug/ml after 24 hrs by agar well diffusion method. The conditions noted are these: read-out: DIZ.
For assay [3], the system named is Bacillus subtilis. The assay can be described thus: Antibacterial activity against Bacillus subtilis at 200 ug/ml after 24 hrs by agar well diffusion method. Particulars: read-out: DIZ.
Assay [4] concerns Bacillus subtilis. The assay can be described thus: Antibacterial activity against Bacillus subtilis at 100 ug/ml after 24 hrs by agar well diffusion method. Particulars: read-out: DIZ.
Assay [5] has as its system Bacillus subtilis. As to the kind of experiment: Antibacterial activity against Bacillus subtilis at 50 ug/ml after 24 hrs by agar well diffusion method. Particulars: read-out: DIZ.
Assay [6] relates to Staphylococcus aureus. The assay can be described thus: Antibacterial activity against Staphylococcus aureus ATCC 6538 at 500 ug/ml after 24 hrs by agar well diffusion method. The conditions noted are these: ATCC 6538, 24 h, read-out: DIZ.
The test system of assay [7] is Staphylococcus aureus. As to the kind of experiment: Antibacterial activity against Staphylococcus aureus ATCC 6538 at 300 ug/ml after 24 hrs by agar well diffusion method. The conditions noted are these: ATCC 6538, 24 h, read-out: DIZ.
For assay [8], the system named is Staphylococcus aureus. As to the kind of experiment: Antibacterial activity against Staphylococcus aureus ATCC 6538 at 200 ug/ml after 24 hrs by agar well diffusion method. The conditions noted are these: ATCC 6538, 24 h, read-out: DIZ.
For assay [9], the system named is Staphylococcus aureus. The assay can be described thus: Antibacterial activity against Staphylococcus aureus ATCC 6538 at 100 ug/ml after 24 hrs by agar well diffusion method. The conditions noted are these: ATCC 6538, 24 h, read-out: DIZ.
For assay [10], the system named is Escherichia coli. The assay can be described thus: Antibacterial activity against Escherichia coli ATCC 8739 at 300 ug/ml after 24 hrs by agar well diffusion method. Particulars: ATCC 8739, 24 h, read-out: DIZ.
Assay [11] concerns Escherichia coli. The assay can be described thus: Antibacterial activity against Escherichia coli ATCC 8739 at 200 ug/ml after 24 hrs by agar well diffusion method. Particulars: ATCC 8739, 24 h, read-out: DIZ.
Assay [12] has as its system Escherichia coli. The assay can be described thus: Antibacterial activity against Escherichia coli ATCC 8739 at 100 ug/ml after 24 hrs by agar well diffusion method. The conditions noted are these: ATCC 8739, 24 h, read-out: DIZ.
For assay [13], the system named is Escherichia coli. As to the kind of experiment: Antibacterial activity against Escherichia coli ATCC 8739 at 50 ug/ml after 24 hrs by agar well diffusion method. The conditions noted are these: ATCC 8739, 24 h, read-out: DIZ.
The test system of assay [14] is Klebsiella pneumoniae. As to the kind of experiment: Antibacterial activity against Klebsiella pneumoniae at 500 ug/ml after 24 hrs by agar well diffusion method. The conditions noted are these: read-out: DIZ.
Assay [15] has as its system Klebsiella pneumoniae. The assay can be described thus: Antibacterial activity against Klebsiella pneumoniae at 300 ug/ml after 24 hrs by agar well diffusion method. Particulars: read-out: DIZ.
The subject of assay [16] is Klebsiella pneumoniae. The assay can be described thus: Antibacterial activity against Klebsiella pneumoniae at 200 ug/ml after 24 hrs by agar well diffusion method. Particulars: read-out: DIZ.
In assay [17] the test system is Klebsiella pneumoniae. The assay can be described thus: Antibacterial activity against Klebsiella pneumoniae at 50 ug/ml after 24 hrs by agar well diffusion method. The conditions noted are these: read-out: DIZ.
Assay [18] concerns Escherichia coli. As to the kind of experiment: Antibacterial activity against Escherichia coli ATCC 8739 at 500 ug/ml after 24 hrs by agar well diffusion method. The conditions noted are these: ATCC 8739, 24 h, read-out: DIZ.
The test system of assay [19] is Klebsiella pneumoniae. As to the kind of experiment: Antibacterial activity against Klebsiella pneumoniae at 100 ug/ml after 24 hrs by agar well diffusion method. Particulars: read-out: DIZ.
Assay [20] deals with Staphylococcus aureus. The assay can be described thus: Antibacterial activity against Staphylococcus aureus ATCC 6538 at 50 ug/ml after 24 hrs by agar well diffusion method. The conditions noted are these: ATCC 6538, 24 h, read-out: DIZ.
In assay [21] the test system is Bacillus subtilis. As to the kind of experiment: Antibacterial activity against Bacillus subtilis after 24 hrs by agar well diffusion method.
For assay [22], the system named is Staphylococcus aureus. As to the kind of experiment: Antibacterial activity against Staphylococcus aureus ATCC 6538 after 24 hrs by agar well diffusion method. The conditions noted are these: ATCC 6538, 24 h.
Assay [23] concerns Escherichia coli. As to the kind of experiment: Antibacterial activity against Escherichia coli ATCC 8739 after 24 hrs by agar well diffusion method. The conditions noted are these: ATCC 8739, 24 h.
Assay [24] has as its system Klebsiella pneumoniae. The assay can be described thus: Antibacterial activity against Klebsiella pneumoniae after 24 hrs by agar well diffusion method.
Assay [25] relates to Aspergillus niger. The assay can be described thus: Antifungal activity against Aspergillus niger at 50 ug/ml after 72 hrs by agar well diffusion method.
The test system of assay [26] is Fusarium oxysporum. As to the kind of experiment: Antifungal activity against Fusarium oxysporum at 500 ug/ml after 72 hrs by agar well diffusion method.
The test system of assay [27] is Fusarium oxysporum. As to the kind of experiment: Antifungal activity against Fusarium oxysporum at 300 ug/ml after 72 hrs by agar well diffusion method.
Assay [28] has as its system Fusarium oxysporum. As to the kind of experiment: Antifungal activity against Fusarium oxysporum at 200 ug/ml after 72 hrs by agar well diffusion method.
The test system of assay [29] is Fusarium oxysporum. The assay can be described thus: Antifungal activity against Fusarium oxysporum at 100 ug/ml after 72 hrs by agar well diffusion method.
The subject of assay [30] is Fusarium oxysporum. As to the kind of experiment: Antifungal activity against Fusarium oxysporum at 50 ug/ml after 72 hrs by agar well diffusion method.
The test system of assay [31] is Rhizoctonia solani. The assay can be described thus: Antifungal activity against Rhizoctonia solani at 500 ug/ml after 72 hrs by agar well diffusion method.
The subject of assay [32] is Rhizoctonia solani. As to the kind of experiment: Antifungal activity against Rhizoctonia solani at 300 ug/ml after 72 hrs by agar well diffusion method.
The subject of assay [33] is Rhizoctonia solani. As to the kind of experiment: Antifungal activity against Rhizoctonia solani at 200 ug/ml after 72 hrs by agar well diffusion method.
Assay [34] has as its system Rhizoctonia solani. As to the kind of experiment: Antifungal activity against Rhizoctonia solani at 100 ug/ml after 72 hrs by agar well diffusion method.
The test system of assay [35] is Rhizoctonia solani. The assay can be described thus: Antifungal activity against Rhizoctonia solani at 50 ug/ml after 72 hrs by agar well diffusion method.
The subject of assay [36] is Aspergillus flavus. The assay can be described thus: Antifungal activity against Aspergillus flavus at 50 ug/ml after 72 hrs by agar well diffusion method.
Assay [37] has as its system Aspergillus flavus. As to the kind of experiment: Antifungal activity against Aspergillus flavus at 100 ug/ml after 72 hrs by agar well diffusion method.
For assay [38], the system named is Aspergillus flavus. As to the kind of experiment: Antifungal activity against Aspergillus flavus after 72 hrs by agar well diffusion method.
For assay [39], the system named is Aspergillus niger. The assay can be described thus: Antifungal activity against Aspergillus niger after 72 hrs by agar well diffusion method.
In assay [40] the test system is Fusarium oxysporum. As to the kind of experiment: Antifungal activity against Fusarium oxysporum after 72 hrs by agar well diffusion method.
The subject of assay [41] is Rhizoctonia solani. As to the kind of experiment: Antifungal activity against Rhizoctonia solani after 72 hrs by agar well diffusion method.
Assay [42] has as its system Aspergillus flavus. As to the kind of experiment: Antifungal activity against Aspergillus flavus at 500 ug/ml after 72 hrs by agar well diffusion method.
The subject of assay [43] is Aspergillus flavus. The assay can be described thus: Antifungal activity against Aspergillus flavus at 300 ug/ml after 72 hrs by agar well diffusion method.
Assay [44] relates to Aspergillus flavus. The assay can be described thus: Antifungal activity against Aspergillus flavus at 200 ug/ml after 72 hrs by agar well diffusion method.
Assay [45] relates to Aspergillus niger. The assay can be described thus: Antifungal activity against Aspergillus niger at 500 ug/ml after 72 hrs by agar well diffusion method.
Assay [46] deals with Aspergillus niger. The assay can be described thus: Antifungal activity against Aspergillus niger at 300 ug/ml after 72 hrs by agar well diffusion method.
Assay [47] relates to Aspergillus niger. The assay can be described thus: Antifungal activity against Aspergillus niger at 200 ug/ml after 72 hrs by agar well diffusion method.
The subject of assay [48] is Aspergillus niger. As to the kind of experiment: Antifungal activity against Aspergillus niger at 100 ug/ml after 72 hrs by agar well diffusion method.

By MIC is commonly meant the lowest concentration that inhibits growth of the organism. A high value points to weaker potency. Turning to `CN[C@@H]1[C@H](O[C@H]2[C@H](O[C@H]3[C@H](O)[C@@H](O)[C@H](N=C(N)N)[C@@H](O)[C@@H]3N=C(N)N)O[C@@H](C)[C@]2(O)C=O)O[C@@H](CO)[C@H](O)[C@H]1O` [STREPTOMYCIN], the zone of inhibition at 500 µg/mL was determined as 28 mm in [1], 31 mm in [6], 37 mm in [14] and 36 mm in [18]. In addition, the zone of inhibition at 300 µg/mL came to 20 mm in [2], 22 mm in assay [7], 26 mm in [10] and 28 mm in assay [15]. The zone of inhibition at 200 µg/mL in assay [3] worked out at 17 mm; in [8], 19 mm; in assay [11], 23 mm; in [16], 24 mm. Moreover, the zone of inhibition at 100 µg/mL in assay [4] was 14 mm; in assay [9] it was 15 mm; in assay [12], 17 mm; in assay [19], 18 mm. Besides, the zone of inhibition at 50 µg/mL in [5] amounted to 9 mm; in [13], 12 mm; in assay [17], 13 mm; in assay [20] it was 10 mm. The MIC in assay [21] came to 20 µg/mL (≈ 34.4 µM); in assay [22], 10 µg/mL (≈ 17.2 µM); in assay [23] it was 5 µg/mL (≈ 8.6 µM); in [24] it was 5 µg/mL (≈ 8.6 µM).

In the case of NYSTATIN, the inhibition zone (IZ) in assay [25] was determined as 11.2 mm; in assay [26], 37 mm; in assay [27], 29 mm; in assay [28] it was 21 mm; in assay [29], 18 mm; in assay [30], 15 mm. In addition, the inhibition zone (IZ) in assay [31] was determined as 38 mm; in [32], 30 mm; in assay [33] it was 22 mm; in assay [34], 20 mm; in assay [35], 16 mm; in assay [36], 11 mm. For the same compound, the inhibition zone (IZ) was 13 mm in assay [37]; 32 mm in [42]; 22 mm in assay [43]; 16 mm in assay [44]; 34 mm in assay [45]; 23 mm in assay [46]. Moreover, the inhibition zone (IZ) was 16.6 mm in assay [47] and 14 mm in assay [48]. For the same compound, the MIC in assay [38] stood at 20 µg/mL; in assay [39], 20 µg/mL; in assay [40], 15 µg/mL; in [41], 15 µg/mL.

The record behind these values is ChEMBL document CHEMBL2429768, “Eco-friendly synthesis and antimicrobial activities of substituted-5-(1H-indol-3-yl)methylene)-2,2-dimethyl-1,3-dioxane-4,6-dione derivatives” (2013).
